Legend:
HCT116 parental cells = assay: Proliferation assay (CellTiter-Glo, 10 days of treatment), HCT116 parental; type: cell-based; conditions: Homo sapiens, HCT-116, 240 h
Method in brief: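 250 cells seeded in McCoy's 5A with 10% FBS, then given a dose response of PRMT5 inhibitor at 37 °C, 5% CO2 for five days. Cells were split 1:10 on Day 6 into fresh medium with the same compound concentration for 5 more days. Viability read on Day 11 by CellTiter-Glo; IC50 after 10 days of treatment.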

[1] = system: PRMT5-dependent Symmetric Di-methyl Arginine signal in HCT116 homozygous MTAP knockout cells; assay: SYM11 In-Cell Western, HCT116 MTAP knockout; type: cell-based; conditions: Homo sapiens, HCT-116, 96 h, HCT116 homozygous MTAP knockout cells, 4 days of treatment, SYM11/DRAQ5 ratio; read-out: In-cell-Western (SYM11) HCT116 MTAP_KO IC50
[2] = system: HCT116 homozygous MTAP knockout cells; assay: Proliferation assay (CellTiter-Glo, 10 days of treatment), HCT116 MTAP knockout; type: cell-based; conditions: Homo sapiens, HCT-116, 240 h, read-out: Proliferation HCT116MTAP_KO IC50
Method in brief: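 Viability of the CRISPR/Cas9 homozygous MTAP-knockout HCT116 line was read by CellTiter-Glo after 10 days of PRMT5 inhibitor exposure, with IC50 derived from the dose response. Compound was given the day after seeding and renewed at an identical concentration when cells were split 1:10 on day 6.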

PRMT5/MEP50 complex = PRMT5/MEP50 complex (Homo sapiens (Human), UniProt O14744); assay: PRMT5:MEP50 HotSpot Assay (full-length histone H2A substrate, plus and minus MTA); type: biochemical; conditions: IC50 + 2 μM MTA, in the presence of 2 μM MTA
Sequence of PRMT5/MEP50 complex (O14744 2-637): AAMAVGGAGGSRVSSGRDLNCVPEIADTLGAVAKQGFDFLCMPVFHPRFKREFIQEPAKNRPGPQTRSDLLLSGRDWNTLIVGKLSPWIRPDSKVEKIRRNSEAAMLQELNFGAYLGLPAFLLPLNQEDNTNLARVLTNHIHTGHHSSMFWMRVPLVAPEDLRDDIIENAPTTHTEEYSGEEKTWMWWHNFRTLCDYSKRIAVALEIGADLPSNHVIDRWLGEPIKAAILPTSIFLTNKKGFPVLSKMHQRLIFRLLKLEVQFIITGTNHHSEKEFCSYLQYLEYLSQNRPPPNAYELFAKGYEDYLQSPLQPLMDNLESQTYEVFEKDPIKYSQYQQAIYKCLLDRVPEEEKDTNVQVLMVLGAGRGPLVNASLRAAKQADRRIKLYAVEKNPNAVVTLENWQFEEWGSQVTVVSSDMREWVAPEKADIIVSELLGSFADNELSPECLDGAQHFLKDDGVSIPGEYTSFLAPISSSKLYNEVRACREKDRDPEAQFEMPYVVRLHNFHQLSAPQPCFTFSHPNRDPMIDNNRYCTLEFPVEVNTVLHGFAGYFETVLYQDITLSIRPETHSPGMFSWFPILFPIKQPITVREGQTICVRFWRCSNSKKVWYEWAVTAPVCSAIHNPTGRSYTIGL
Sequence of PRMT5/MEP50 complex (Q9BQA1 2-342 partner): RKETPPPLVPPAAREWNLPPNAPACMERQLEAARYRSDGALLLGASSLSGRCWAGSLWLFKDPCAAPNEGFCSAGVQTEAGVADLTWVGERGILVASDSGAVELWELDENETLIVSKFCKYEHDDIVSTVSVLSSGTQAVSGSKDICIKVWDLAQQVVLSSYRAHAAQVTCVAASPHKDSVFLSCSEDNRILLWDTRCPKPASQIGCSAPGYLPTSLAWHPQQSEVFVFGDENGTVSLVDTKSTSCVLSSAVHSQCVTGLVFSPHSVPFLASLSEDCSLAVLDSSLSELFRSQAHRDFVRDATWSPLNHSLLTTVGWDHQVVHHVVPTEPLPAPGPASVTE
Method in brief: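 Tritium incorporated into recombinant full-length histone H2A was counted by scintillation after stopped reactions were captured on filter paper.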

[3] = system: PRMT5-dependent Symmetric Di-methyl Arginine signal in HCT116 parental cells; assay: SYM11 In-Cell Western, HCT116 parental; type: cell-based; conditions: Homo sapiens, HCT-116, 96 h, 4 days of treatment, SYM11/DRAQ5 ratio
Method in brief: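 HCT116 parental cells (2,000/well, McCoy's 5A with 10% FBS) dosed with PRMT5 inhibitors for four days at 37° C. Fixed in paraformaldehyde and methanol, then stained with SYM11 antibody and DRAQ5.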

SMILES | IC50 [1] [nM] | IC50 [2] [nM] | IC50 (PRMT5/MEP50 complex) [nM] | IC50 (HCT116 parental cells) [nM] | IC50 [3] [nM]
CCc1cc(OC)cc(-c2c(-c3ccc4c(=O)[nH]nc(CN)c4c3)cnn2C)c1C#N [Example 4-202, 2-(4-(4-(aminomethyl)-1-oxo-1,2-dihydrophthalazin-6-yl)-1-methyl-1H-pyrazol-5-yl)-6-ethyl-4-methoxybenzonitrile] | 8 | 232 | 255 | 2370 | > 1000
COc1cc(-c2c(-c3ccc4c(=O)[nH]nc(CN)c4c3)cnn2C)c(C#N)c2ccccc12 [Example 4-205, 2-(4-(4-(aminomethyl)-1-oxo-1,2-dihydrophthalazin-6-yl)-1-methyl-1H-pyrazol-5-yl)-4-methoxy-1-naphthonitrile] | 6 | 59 | 23 | 683 | > 1000
Cn1ncc(-c2ccc3c(=O)[nH]nc(CN)c3c2)c1-c1cc(Cl)c2ccccc2c1C#N [Example 4-206, 2-(4-(4-(aminomethyl)-1-oxo-1,2-dihydrophthalazin-6-yl)-1-methyl-1H-pyrazol-5-yl)-4-chloro-1-naphthonitrile] | 3 | 34 | 35 | 1000 | > 1000
Cn1ncc(-c2ccc3c(=O)[nH]nc(CN)c3c2)c1-c1sc2ccccc2c1C#N [Example 4-242, 2-(4-(4-(aminomethyl)-1-oxo-1,2-dihydrophthalazin-6-yl)-1-methyl-1H-pyrazol-5-yl)benzo[b]thiophene-3-carbonitrile] | 2 | 44 | 102 | 4990 | > 1000
Cn1ncc(-c2cc(Cl)c3c(=O)[nH]nc(CN)c3c2)c1-c1ccc2ccccc2c1C#N [Example 10-1, 2-(4-(4-(aminomethyl)-8-chloro-1-oxo-1,2-dihydrophthalazin-6-yl)-1-methyl-1H-pyrazol-5-yl)-1-naphthonitrile] | 15 | 36 | 41.7 | 2300 | 1120
Cn1ncc(-c2cc(F)c3c(=O)[nH]nc(CN)c3c2)c1-c1ccc2ccccc2c1C#N [Example 10-2, 2-(4-(4-(aminomethyl)-8-fluoro-1-oxo-1,2-dihydrophthalazin-6-yl)-1-methyl-1H-pyrazol-5-yl)-1-naphthonitrile] | 6 | 112 | 67.2 | 3380 | 2480
Cn1ncc(-c2cc(Cl)c3c(=O)[nH]nc(CN)c3c2)c1-c1cccc(Cl)c1C#N [Example 10-3, 2-(4-(4-(aminomethyl)-8-chloro-1-oxo-1,2-dihydrophthalazin-6-yl)-1-methyl-1H-pyrazol-5-yl)-6-chlorobenzonitrile] | 5 | 240 | 845 | 8480 | 3820
CCc1cccc(-c2c(-c3cc(Cl)c4c(=O)[nH]nc(CN)c4c3)cnn2C)c1C#N [Example 10-4, 2-(4-(4-(aminomethyl)-8-chloro-1-oxo-1,2-dihydrophthalazin-6-yl)-1-methyl-1H-pyrazol-5-yl)-6-ethylbenzonitrile] | 7 | 128 | 417 | > 10000 | 9220
CCOc1cccc(-c2c(-c3cc(Cl)c4c(=O)[nH]nc(CN)c4c3)cnn2C)c1C#N [Example 10-5, 2-(4-(4-(aminomethyl)-8-chloro-1-oxo-1,2-dihydrophthalazin-6-yl)-1-methyl-1H-pyrazol-5-yl)-6-ethoxybenzonitrile] | 30 | 250 | 1150 | > 10000 | > 10000
Cn1ncc(-c2cc(F)c3c(=O)[nH]nc(CN)c3c2)c1-c1cccc(Cl)c1C#N [Example 10-6, 2-(4-(4-(aminomethyl)-8-fluoro-1-oxo-1,2-dihydrophthalazin-6-yl)-1-methyl-1H-pyrazol-5-yl)-6-chlorobenzonitrile] | 219 | 4090 | 6630 | > 10000 | > 10000
CCc1cccc(-c2c(-c3cc(C)c4c(=O)[nH]nc(CN)c4c3)cnn2C)c1C#N [Example 10-7, 2-(4-(4-(aminomethyl)-8-methyl-1-oxo-1,2-dihydrophthalazin-6-yl)-1-methyl-1H-pyrazol-5-yl)-6-ethylbenzonitrile] | 31 | 103 | 107 | 8390 | > 1000
CCc1cccc(-c2c(-c3cc(F)c4c(=O)[nH]nc(CN)c4c3)cnn2C)c1C#N [Example 10-8, 2-(4-(4-(aminomethyl)-8-fluoro-1-oxo-1,2-dihydrophthalazin-6-yl)-1-methyl-1H-pyrazol-5-yl)-6-ethylbenzonitrile] | 27 | 276 | 660 | > 10000 | 4720
CCOc1cccc(-c2c(-c3cc(F)c4c(=O)[nH]nc(CN)c4c3)cnn2C)c1C#N [Example 10-10, 2-(4-(4-(aminomethyl)-8-fluoro-1-oxo-1,2-dihydrophthalazin-6-yl)-1-methyl-1H-pyrazol-5-yl)-6-ethoxybenzonitrile] | 89 | 1250 | 2730 | > 10000 | > 10000
Cc1cc(-c2cnn(C)c2-c2ccc3ccccc3c2C#N)cc2c(CN)n[nH]c(=O)c12 [Example 10-11, 2-(4-(4-(aminomethyl)-8-methyl-1-oxo-1,2-dihydrophthalazin-6-yl)-1-methyl-1H-pyrazol-5-yl)-1-naphthonitrile] | 5 | 29 | 34 | 763 | 4260
Cc1cc(-c2cnn(C)c2-c2cccc(OC3CC3)c2C#N)cc2c(CN)n[nH]c(=O)c12 [Example 10-12, 2-(4-(4-(aminomethyl)-8-methyl-1-oxo-1,2-dihydrophthalazin-6-yl)-1-methyl-1H-pyrazol-5-yl)-6-cyclopropoxybenzonitrile] | 6 | 91 | 155 | 6200 | > 1000

More lines, main results first:

IC50 [1] [nM] | IC50 [2] [nM] | IC50 (PRMT5/MEP50 complex) [nM] | SMILES | IC50 (HCT116 parental cells) [nM] | IC50 [3] [nM]
57 | 807 | 1970 | [2H]C([2H])(N)c1n[nH]c(=O)c2ccc(-c3cnn(C)c3-c3cccc(Cl)c3C#N)cc12 [Example 11-1, 2-(4-(4-(aminomethyl-d2)-1-oxo-1,2-dihydrophthalazin-6-yl)-1-methyl-1H-pyrazol-5-yl)-6-chlorobenzonitrile] | > 10000 | > 1000
1 | 94 | 138 | [2H]C([2H])(N)c1n[nH]c(=O)c2ccc(-c3cnn(C)c3-c3ccc4ccccc4c3C#N)cc12 [Example 11-2, 2-(4-(4-(aminomethyl-d2)-1-oxo-1,2-dihydrophthalazin-6-yl)-1-methyl-1H-pyrazol-5-yl)-1-naphthonitrile] | 1950 | > 10000
28 | 158 | 316 | Cc1c(Cl)ccc(-c2c(-c3ccc4c(=O)[nH]nc(CN)c4c3)cnn2C)c1C#N [Example 12-1, 6-(4-(4-(aminomethyl)-1-oxo-1,2-dihydrophthalazin-6-yl)-1-methyl-1H-pyrazol-5-yl)-3-chloro-2-methylbenzonitrile] | > 10000 | > 1000
16 | > 10000 | 315 | Cc1ccc(-c2c(-c3ccc4c(=O)[nH]nc(CN)c4c3)cnn2C)c(C#N)c1C [Example 12-2, 6-(4-(4-(aminomethyl)-1-oxo-1,2-dihydrophthalazin-6-yl)-1-methyl-1H-pyrazol-5-yl)-2,3-dimethylbenzonitrile] | 208 | 2200
8 | 137 | 212 | CCc1cc(CC)c(C#N)c(-c2c(-c3ccc4c(=O)[nH]nc(CN)c4c3)cnn2C)c1 [Example 12-3, 2-[4-[4-(aminomethyl)-1-oxo-2H-phthalazin-6-yl]-2-methyl-pyrazol-3-yl]-4,6-diethyl-benzonitrile] | 1690 | > 1000
9 | 148 | 178 | Cc1cccc2c(C#N)c(-c3c(-c4ccc5c(=O)[nH]nc(CN)c5c4)cnn3C)ccc12 [Example 12-9, 2-(4-(4-(aminomethyl)-1-oxo-1,2-dihydrophthalazin-6-yl)-1-methyl-1H-pyrazol-5-yl)-5-methyl-1-naphthonitrile] | 3350 | > 10000
18 | 125 | 234 | Cc1cc(C)c(C#N)c(-c2c(-c3ccc4c(=O)[nH]nc(CN)c4c3)cnn2C)c1 [Example 12-11, 2-(4-(4-(aminomethyl)-1-oxo-1,2-dihydrophthalazin-6-yl)-1-methyl-1H-pyrazol-5-yl)-4,6-dimethylbenzonitrile] | 8700 | 1230
